Reference: US9278982B2, “Targeting human thymidylate kinase induces DNA repair toxicity in malignant tumor cells” (NATIONAL YANG-MING UNIVERSITY, priority 2010, dated 2016)

Experiments:
[1] = system: H184B5F5/M10, MCF-10A, MCF-7 and HCT-116 p53−/− cells
Description: (B) H184B5F5/M10 cells were seeded onto 100 mm-dish at 5,000 cells/dish. MCF-10A, MCF-7 and HCT-116 p53^−/− cells were seeded onto 6 well plate at 600 cells/well. Following overnight culture, cells were treated with various concentration of YMU1 or FdUrd thrice a week. After 14 days colonies were fixed, stained by crystal violet.
We also compared the effect of YMU1 and FdUrd on cell viability of non-tumorigenic mammary cycling cells, H184B5F5/M10 and MCF-10A and tumor lines, MCF-7 and HCT-116 p53^−/− cells.
After 14 days, colonies were fixed and stained by crystal violet and counted.

TMPK = target: T1, TMPK (Homo sapiens, UniProt P23919); assay: Luciferase-coupled TMPK assay; type: biochemical; set-up: GST (N, cleaved yes); made in house; host or cells: E. coli JM109 (pGEX-2T-hTMPK); settings: purified hTMPK protein (0.5 μg), 10 min preincubation; read-out: IC50 against hTMPK
T1 sequence (P23919 1-212): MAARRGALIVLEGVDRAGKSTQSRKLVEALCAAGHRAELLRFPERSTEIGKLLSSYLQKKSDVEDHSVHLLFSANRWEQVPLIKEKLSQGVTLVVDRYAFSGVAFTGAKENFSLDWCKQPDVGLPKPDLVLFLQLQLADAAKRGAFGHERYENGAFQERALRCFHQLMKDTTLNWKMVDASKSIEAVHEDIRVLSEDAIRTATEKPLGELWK
Description: FIG. 12. Identification of a novel hTMPK inhibitor. (A) A screen of TMPK inhibitor by luciferase-coupled assay. (B) The chemical structures of YMU1 (compound 21) and related molecules. (C) Effect of YMU1 and derivative compounds on hTMPK inhibition using purified hTMPK protein (0.5 μg) with 10 min preincubation prior to reaction using luciferase-coupled TMPK analysis. (D) Effect of YMU1 on activity of purified TMPK (0.5 μg) and GST-hTK1 protein (5 μg) with 10 min preincubation prior to reaction. Data represent mean±s.d. (n=4) (E) Molecular models of the TMPK-YMU1 complex. Left panel: TMPK/ATP/Mg+2; right panel: TMPK/YMU1. The TMPK is represented in surface electrostatic potential (upper) and structural ribbon (lower). ATP and YMU1 are shown in green and blue stick, respectively, with colored atom (O, red; S, yellow; P, orange). TMP is shown in white backbone and Mg+2 in purple. Arrow indicates the position of Asp15.
Based on the functional requirement of TMPK in DNA repair specifically in tumor cells with elevated level of R2 expression, we searched for inhibitors of hTMPK that might be useful in selectively sensitizing tumor cells to doxorubicin. […] The synthetic procedure and structural elucidation of YMU1 (compound 21) are described in the Methods of the Invention section of the application.
The TMPK reaction was started by adding purified hTMPK in 50 μl of TMPK assay buffer (100 mM Tris-HCl, pH 7.5, 100 mM KCl, 10 mM MgCl2, 50 μM ATP and 100 μM dTMP) in 96 wells plate at 25° C. for 10 min and terminated by adding 200 μl of DTNB (100 μM), followed by transferring 10 μl of reaction solution to a white 96-wellplate containing 90 μl of luciferase assay buffer (50 mM Glycine, 0.5 mM EDTA and 5 mM EDTA, pH 7.0, 0.1 μg of luciferase, 50 μM luciferin and 0.1% BSA). The luminescence was measured with a luminescence counter (Packard).

HCT-116 p53−/− cells = assay: Whole-cell dTTP extraction and quantification; type: cell-based, human
Description: FIG. 13. Effect of YMU1 on cellular dTTP level. HCT-116 p53−/− cells were transfected with or without TMPK siRNA for 2 days and treated with vehicle or YMU1. After 72 h, cells were harvested for Western blot analysis and dNTP level determination (mean±s.d., n=3; **, P<0.01 based on a two-tailed Student's t-test).
The investigators performed additional experiments to determine the effect of YMU1 treatment on cellular dTTP levels. YMU1 treatment in cells reduced dTTP pool about 30-40% after treatment with YMU1 for 3 days (FIG. 13). Transfection of these cells with siRNA to knock-down TMPK expression reduced the dTTP pool size in a similar magnitude.
10^6 cells were extracted with 1 ml of ice-cold 60% methanol at −20° C. overnight, followed by centrifugation for 30 min at 16,000×g. The supernatant was immersed at 100° C. in dry bath for 3 min and dried under vacuum. The dry residue was dissolved in 80 μl of nuclease free water and used for cellular dNTP measurement according to the method described by Ferraro et al. (Ferraro et al., 2010).

MDA-MB231 cells = assay: Comet assay of DNA repair efficiency after doxorubicin; type: cell-based, human; settings: YMU1 treatment, after removal of doxorubicin (0.1 μM)
Description: FIG. 15. […] DNA repair efficiency was measured by comet assay at indicated time after removal of doxorubicin (0.1 μM) in MDA-MB231 cells. Image of DNA comet was acquired and quantified by using scion image software for tail moment determination. Data were expressed as mean±s.d. by counting at least 70 comets per sample in 3 independent experiments. **, P<0.01 based on a two-tailed Student's t-test.
Alkaline comet assays were performed using a Trevigen's Comet Assay kit (4250-050-k) according to the manufacturer's instruction. DNA was stained with SYBR Green, and slides were photographed digitally (Olympus BX51 microscope and Olympus camera). Tail moments were analyzed using Scoin Image software.

SMILES: CCOC(=O)N1CCN(C(=O)Cn2sc3nc(C)cc(C)c3c2=O)CC1 [compound 21, Ethyl 4-(2-(4,6-dimethyl-3-oxoisothiazolo[5,4-b]pyridin-2(3H)-yl)acetyl) piperazine-1-carboxylate]
- death of cells in colony assay [1]: did not
- IC50 (TMPK): 610 ± 20 nM
- further reduction of dTTP pool in TMPK knockdown cells (HCT-116 p53−/− cells; cells transfected with TMPK siRNA, then YMU1): did not cause a further reduction
- reduction of dTTP pool (HCT-116 p53−/− cells; treatment with YMU1 for 3 days): 30-40%
- DNA repair (comet assay, tail moment) (MDA-MB231 cells): impairment of DNA repair
